Experimental findings from ChEMBL document CHEMBL1201862, “PubChem BioAssay data set” (2004) are described below.

Common to all, as to assay: NCI-60 cell line screen, 48 h
The test system of assay [1] is A498.
Assay [2] deals with BT-549.
Assay [3] deals with CCRF-CEM.
The test system of assay [4] is COLO 205.
For assay [5], the system named is EKVX.
For assay [6], the system named is HCT-15.
The subject of assay [7] is HOP-62.
For assay [8], the system named is LOX IMVI.
For assay [9], the system named is MDA-MB-231.
Assay [10] concerns Malme-3M.
Assay [11] has as its system NCI-H226.
Assay [12] has as its system NCI-H522.
The test system of assay [13] is OVCAR-3.
Assay [14] relates to SF-539.
The subject of assay [15] is SK-OV-3.
The test system of assay [16] is SNB-75.
The subject of assay [17] is SR.
In assay [18] the test system is T47D.
For assay [19], the system named is UACC-62.
The subject of assay [20] is UO-31.

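48-hour exposure; five concentrations; linearly interpolated endpoints. GI50: concentration for 50% inhibition of growth.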 Activity calls are given as the source filed them. No stated cut-off is given here; in the data, active = GI50 up to about 1.1 µM and inactive = higher.

On to `CCCCCC(/C=C/C1CCC(=O)C1CC#C[Si](C)(C)C)OCc1ccccc1` (stereo unspecified), for which the GI50 in [1] is 36.3 µM (inactive); in [2], 17.3 µM (inactive); in assay [3], 10.5 µM (inactive); in assay [4] it was 19.2 µM (inactive); in [5] it was 16.9 µM (inactive); in assay [6] it was 15.6 µM. Moreover, the GI50 in [7] is 19.1 µM (inactive); in assay [8], 15.7 µM (inactive); in assay [9], 23.1 µM (inactive); in assay [10], 15.9 µM (inactive); in [11], 30.5 µM (inactive); in assay [12], 14 µM (inactive). In addition, the GI50 in assay [13] was 17.5 µM (inactive); in assay [14], 12.1 µM (inactive); in assay [15], 41.2 µM (inactive); in assay [16], 16.6 µM (inactive); in assay [17] it was > 35 µM (inactive); in assay [18] it was 23.2 µM (inactive). Besides, the figures for the GI50 in assay [19] and in [20] were 13.5 µM (inactive) and 15.5 µM (inactive), respectively.
For `COc1ccc2c(c1)c1ccc3c(c1n2C)C(=O)C=CC3=O`, the GI50 was 25.4 µM (inactive) in [1]; 3.77 µM (inactive) in assay [2]; 0.455 µM (active) in assay [3]; 9.75 µM (inactive) in assay [4]; 14.1 µM (inactive) in [5]; 4.72 µM in assay [6]. Besides, the GI50 was 35.5 µM (inactive) in assay [7]; 8.83 µM (inactive) in assay [8]; 5.18 µM (inactive) in assay [9]; 7.76 µM (inactive) in [10]; 14.3 µM (inactive) in assay [11]; 3.15 µM (inactive) in [12]. The GI50 in assay [13] is 8.39 µM (inactive); in [14], 13 µM (inactive); in [15] it was 29.2 µM (inactive); in assay [16], 31.7 µM (inactive); in [17], 0.813 µM (active); in assay [18] it was 2.21 µM (inactive). Further, the GI50 in assay [19] is 12.8 µM (inactive); in assay [20], 11.4 µM (inactive).
Regarding `CC(=O)O[C@H]1C[C@H](O[C@H]2[C@@H](O)C[C@H](O[C@H]3[C@@H](O)C[C@H](O[C@H]4CC[C@@]5(C)[C@H](CC[C@@H]6[C@@H]5C[C@@H](O)[C@]5(C)[C@@H](C7=CC(=O)OC7)CC[C@]65O)C4)O[C@@H]3C)O[C@@H]2C)O[C@H](C)[C@H]1O[C@@H]1O[C@H](CO)[C@@H](O)[C@H](O)[C@H]1O` [LANATOSIDE C], the GI50 in assay [1] was 0.0897 µM (active); in assay [2], 0.044 µM (active); in assay [4], 0.136 µM (active); in assay [5] it was 0.0284 µM (active); in assay [6] it was 0.0409 µM; in assay [7] it was 0.0264 µM (active). Further, the GI50 in assay [8] is 0.042 µM (active); in assay [9] it was 0.372 µM (active); in assay [10], 0.0678 µM (active); in assay [11], 0.243 µM (active); in assay [12], 0.0137 µM (active); in [13], 0.041 µM (active). For the same compound, the GI50 is 0.0336 µM (active) in assay [14]; 0.0597 µM (active) in assay [15]; 0.167 µM (active) in assay [16]; 0.1 µM (active) in assay [17]; 0.0778 µM (active) in assay [18]; 0.21 µM (active) in assay [19]. Further, in assay [20], the GI50 is 0.0559 µM (active).
With `O=C(O)[C@@H]1CSCN1C(=O)[C@@H]1CCC(=S)N1`, the GI50 in [1] was > 100 µM (inactive); in assay [2] it was > 100 µM (inactive); in assay [3], > 100 µM (inactive); in assay [6], more than 100 µM; in [7], > 100 µM (inactive); in [8] it was > 100 µM (inactive). Besides, the GI50 in assay [9], in assay [10], in assay [11], in assay [12], in assay [13] and in assay [14] was > 100 µM (inactive) throughout. The GI50 in assay [15] is > 100 µM (inactive); in [16], > 100 µM (inactive); in assay [17] it was > 100 µM (inactive); in assay [18], > 100 µM (inactive); in [19], > 10 µM (inactive); in [20], > 100 µM (inactive).
`CC(=O)Oc1ccc2cc(Oc3ccc(Cl)c(Cl)c3)c(=O)oc2c1`: the GI50 in [1] was 22.3 µM (inactive); in assay [2] it was 12.6 µM (inactive); in assay [3], 18.3 µM (inactive); in assay [5], 24 µM (inactive); in assay [6] it was 14.6 µM; in assay [7] it was 25.2 µM (inactive). In addition, the GI50 in assay [8] is 19.7 µM (inactive); in assay [9] it was 27 µM (inactive); in [10], 29.2 µM (inactive); in assay [11], 26.6 µM (inactive); in assay [12], 21.2 µM (inactive); in assay [13], 22.9 µM (inactive). Further, the GI50 is 19.7 µM (inactive) in assay [14]; 22 µM (inactive) in [16]; 35.3 µM (inactive) in [17]; 11.5 µM (inactive) in [18]; 15.5 µM (inactive) in [20].
Consider `COc1cc(/C=C/C2=NN(c3cccc(S(=O)(=O)O)c3)C3(C2)C(Cl)C(=O)N3c2nc3ccccc3s2)ccc1O` (stereo unspecified), for which the GI50 in assay [1] is 55.6 µM (inactive); in assay [2], 14.7 µM (inactive); in assay [3], 17.7 µM (inactive); in assay [4] it was 18.5 µM (inactive); in assay [5] it was 20.3 µM (inactive); in [6], 16.7 µM. Also, the GI50 in [8] is 11.4 µM (inactive); in [9], 20.8 µM (inactive); in assay [10], 19.7 µM (inactive); in assay [11], 20.7 µM (inactive); in assay [12], 13.9 µM (inactive); in assay [14], 21.4 µM (inactive). Further, the GI50 in assay [16] was 21.7 µM (inactive); in assay [17], 15.6 µM (inactive); in [18], 6.47 µM (inactive); in assay [19], 18.5 µM (inactive); in assay [20], 16.9 µM (inactive).
As for `c1cncc(CC2(c3cc4ccccc4[nH]3)OCCO2)c1`, the GI50 is > 100 µM (inactive) in assay [1]; 66.1 µM (inactive) in [2]; > 100 µM (inactive) in [3]; > 100 µM (inactive) in assay [4]; more than 100 µM in assay [6]; > 100 µM (inactive) in assay [8]. Also, the GI50 in assay [9] is > 100 µM (inactive); in [10] it was > 100 µM (inactive); in [11], > 100 µM (inactive); in assay [12] it was > 100 µM (inactive); in assay [14], 58.3 µM (inactive); in assay [15] it was > 100 µM (inactive). In addition, the GI50 in assay [16] is > 100 µM (inactive); in assay [17], 85.5 µM (inactive); in assay [18] it was > 100 µM (inactive); in assay [19] it was > 100 µM (inactive); in assay [20] it was 40.6 µM (inactive).
In the case of `CCOC(=O)CC1(N)CC2c3ccccc3OC(=O)C2C(=O)N1` (stereo unspecified), the GI50 in assay [1] was > 100 µM (inactive); in assay [2] it was > 100 µM (inactive); in assay [3], > 100 µM (inactive); in [4], > 100 µM (inactive); in assay [5], > 100 µM (inactive); in [6], more than 100 µM. Also, the GI50 in [7], in [8], in [9], in assay [10], in [11] and in [12] was > 100 µM (inactive) throughout. Moreover, the GI50 in assay [13], in [16], in [17], in assay [18], in [19] and in assay [20] was > 100 µM (inactive) throughout.
